From patent publication US20160145247A1, “Aminomethyl-Biaryl Derivatives Complement Factor D inhibitors and uses thereof” (NOVARTIS AG, priority 2013, published 2016)

target: T1, factor D (Homo sapiens, UniProt P00746); experiment: factor D inhibition assay of Biological Example 2; type: biochemical
T1 construct: made in house; host or cells: E. coli
T1 sequence (P00746 26-253): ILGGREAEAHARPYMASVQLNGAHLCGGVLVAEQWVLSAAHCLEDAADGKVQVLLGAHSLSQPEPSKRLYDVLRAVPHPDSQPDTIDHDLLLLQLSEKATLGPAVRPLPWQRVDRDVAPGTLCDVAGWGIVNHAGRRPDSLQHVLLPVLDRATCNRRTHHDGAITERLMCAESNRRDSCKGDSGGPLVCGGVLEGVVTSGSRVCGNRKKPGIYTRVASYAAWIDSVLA

Structure (SMILES) | IC50
NCc1cc(F)cc(-c2cccc(C(=O)Nc3cccc(Cl)c3CC(=O)O)c2)c1 [Example 21-F] | 3120 nM
NCc1cccc(-c2cccc(COc3ccccc3CC(=O)O)c2)c1Cl [Example 142-B] | 77 nM
NCc1cc(F)cc(-c2cccc(COc3ccccc3CC(=O)O)c2)c1 [Example 187, 2-(2-((3′-(Aminomethyl)-5′-fluoro-[1,1′-biphenyl]-3-yl)methoxy)phenyl)acetic acid] | 174 nM
Cc1ccc(-c2cccc([C@@H](C)N)c2F)cc1COc1ccccc1CC(=O)O [Example 273-B, (R)-2-(2-((3′-(1-aminoethyl)-2′-fluoro-4-methyl-[1,1′-biphenyl]-3-yl)methoxy)phenyl)acetic acid] | 14 nM
NCc1cc(F)cc(-c2cc(NC[C@H]3CCCO3)cc(C(=O)Nc3ccccc3CC(=O)O)c2)c1 [Example 14-D] | 21 nM
NC1(c2cccc(-c3cccc(C(=O)Nc4ccccc4CC(=O)O)c3)c2)CC1 [Example 92, 2-(2-(3′-(1-Aminocyclopropyl)-[1,1′-biphenyl]-3-ylcarboxamido)phenyl)acetic acid] | 8470 nM
Cc1cc(Nc2cc(C(=O)Nc3ccccc3CC(=O)O)cc(-c3cc(F)cc(CN)c3)c2)[nH]n1 [Example 79-H] | 17 nM
N#CC[C@@H](N)c1cccc(-c2cccc(COc3ccccc3CC(=O)O)c2)c1 [Example 196-E] | 272 nM
N#Cc1ccc(COc2ccccc2CC(=O)O)cc1-c1cccc(CN)c1 [Example 289, 2-(2-((3′-(aminomethyl)-6-cyano-[1,1′-biphenyl]-3-yl)methoxy)phenyl)acetic acid] | 850 nM
NCc1cc(Cl)cc(-c2cccc(COc3ccccc3CC(=O)O)c2)c1 [Example 291, 2-(2-((3′-(aminomethyl)-5′-chloro-[1,1′-biphenyl]-3-yl)methoxy)phenyl)acetic acid] | 190 nM
CCC[C@@H](N)c1cccc(-c2cc(COc3ccccc3CC(=O)O)cc(NCCOC)c2)c1 [Example 201, (R)-2-(2-((3′-(1-Aminobutyl)-5-((2-methoxyethyl)amino)-[1,1′-biphenyl]-3-yl)methoxy)phenyl)acetic acid] | 113 nM
N[C@H](CO)c1cccc(-c2cccc(COc3ccccc3CC(=O)O)c2)n1 [Example 138-K] | 45 nM
NCc1cc(F)cc(-c2nc(C(=O)Nc3ccccc3CC(=O)O)c(C3CC3)s2)c1 [Example 35-B, 2-(2-(2-(3-(Aminomethyl)-5-fluorophenyl)-5-cyclopropylthiazole-4-carboxamido)phenyl)acetic acid] | 13 nM
C[C@H](N)c1cccc(-c2cc(COc3ccccc3CC(=O)O)cc(OCc3ccccn3)c2)c1F [Example 214-M] | 20 nM
NCc1cc(F)cc(-c2nc(C(=O)Nc3ccccc3CC(=O)O)c(N3CCOCC3)s2)c1 [Example 32, 2-(2-(2-(3-(aminomethyl)-5-fluorophenyl)-5-morpholinothiazole-4-carboxamido)phenyl)acetic acid] | 49 nM
NC(CO)c1cccc(-c2cccc(C(=O)Nc3ccccc3CC(=O)O)c2)c1 (racemic) [Example 86, (±)-2-(2-(3′-(1-Amino-2-hydroxyethyl)-[1,1′-biphenyl]-3-ylcarboxamido)phenyl)acetic acid] | 1260 nM
CC(Oc1ccccc1CC(=O)O)c1cccc(-c2cccc(CN)c2)c1 (racemic) [Example 163, (±)-2-(2-(1-(3′-(aminomethyl)-[1,1′-biphenyl]-3-yl)ethoxy)phenyl)acetic acid] | 61 nM
CCNc1ccc(CC(=O)O)c(OCc2cccc(-c3cccc(CN)c3)c2)c1 [Example 294-E] | 490 nM
C[C@@H](N)c1cccc(-c2cc(COc3ccccc3CC(=O)O)cc(N(C)C[C@H]3CCCO3)c2)c1F [Example 216-I] | 13 nM
CCC[C@@H](N)c1cccc(-c2cccc(COc3ccccc3CC(=O)O)c2)c1F [Example 195-B, (R)-2-(2-((3′-(1-Aminobutyl)-2′-fluoro-[1,1′-biphenyl]-3-yl)methoxy)phenyl)acetic acid] | 107 nM
NCc1cc(F)cc(-c2cc(NCc3ccncc3)cc(C(=O)Nc3ccccc3CC(=O)O)c2)c1 [Example 14-B] | 11 nM
COc1c(C(=O)Nc2ccccc2CC(=O)O)cccc1-c1cc(F)cc(CN)c1 [Example 93-B, 2-(2-(3′-(Aminomethyl)-5′-fluoro-2-methoxy-[1,1′-biphenyl]-3-ylcarboxamido)phenyl)acetic acid] | 6720 nM
NCc1cc(F)cc(-c2nc(C(=O)Nc3ccccc3CC(=O)O)cs2)c1 [Example 29, 2-(2-(2-(3-(aminomethyl)-5-fluorophenyl)thiazole-4-carboxamido)phenyl)acetic acid] | 62 nM
CCC[C@@H](N)c1cccc(-c2cc(CO)cc(COc3ccccc3CC(=O)O)c2)c1 [Example 117-B, (R)-2-(2-((3′-(1-Aminobutyl)-5-(hydroxymethyl)-[1,1′-biphenyl]-3-yl)methoxy)phenyl)acetic acid] | 83 nM
C[C@@H](N)c1cccc(-c2cccc(COc3ccccc3CC(=O)O)c2F)c1 [Example 125, (R)-2-(2-((3′-(1-Aminoethyl)-2-fluoro-[1,1′-biphenyl]-3-yl)methoxy)phenyl)acetic acid] | 4450 nM
C[C@H](N)c1cccc(-c2cc(CCc3ccncc3)cc(COc3ccccc3CC(=O)O)c2)c1F [Example 216-O] | 78 nM
N[C@H](CF)c1cccc(-c2cc(CNCC(F)(F)F)cc(COc3ccccc3CC(=O)O)c2)c1 [Example 284-B, (S)-2-(2-((3′-(1-amino-2-fluoroethyl)-5-(((2,2,2-trifluoroethyl)amino)methyl)-[1,1′-biphenyl]-3-yl)methoxy)phenyl)acetic acid] | 228 nM
C[C@@H](N)c1cccc(-c2cc(COc3ccccc3CC(=O)O)cc(OCC3(C)CC3)c2)c1F [Example 259-E, (R)-2-(2-((3′-(1-aminoethyl)-2′-fluoro-5-((1-methylcyclopropyl)methoxy)-[1,1′-biphenyl]-3-yl)methoxy)phenyl)acetic acid] | 22 nM
N[C@H](CCF)c1cccc(-c2cc(Cl)cc(COc3ccccc3CC(=O)O)c2)c1 [Example 279-B, (R)-2-(2-((3′-(1-amino-3-fluoropropyl)-5-chloro-[1,1′-biphenyl]-3-yl)methoxy)phenyl)acetic acid] | 290 nM
CC(NCc1cc(COc2ccccc2CC(=O)O)cc(-c2cccc(CN)c2)c1)C(F)(F)F (stereo not drawn) [Example 208-F] | 9 nM

The remaining lines, values ahead:

IC50 | Structure (SMILES)
3 nM | Nc1cc(-c2cccc([C@H](N)CO)c2)cc(COc2ccccc2CC(=O)O)c1F [155 a), (S)-2-(2-((5-Amino-3′-(1-amino-2-hydroxyethyl)-4-fluoro-[1,1′-biphenyl]-3-yl)methoxy)phenyl)acetic acid]
9 nM | NCc1cc(F)cc(-c2cc(Nc3ccccc3)cc(C(=O)Nc3ccccc3CC(=O)O)c2)c1 [Example 13-B, 2-(2-(3′-(Aminomethyl)-5′-fluoro-5-(phenylamino)-[1,1′-biphenyl]-3-ylcarboxamido)phenyl)acetic acid]
9 nM | C[C@@H](N)c1cccc(-c2cc(COc3ccccc3CC(=O)O)c3cn[nH]c3c2)c1F [Example 211-C]
6 nM | C[C@@H](N)c1cccc(-c2cc(N)c(F)c(COc3ccccc3CC(=O)O)c2)c1F [Example 221 a), (R)-2-(2-((5-amino-3′-(1-aminoethyl)-2′,4-difluoro-[1,1′-biphenyl]-3-yl)methoxy)phenyl)acetic acid]
9 nM | NCc1cc(F)cc(-c2cc(NC3CCOC3)cc(C(=O)Nc3ccccc3CC(=O)O)c2)c1 (stereo not drawn) [Example 79-B]
5 nM | CCc1ccc(CC(=O)O)c(OCc2cccc(-c3cccc(CN)c3)c2)c1 [Example 293, 2-(2-((3′-(aminomethyl)-[1,1′-biphenyl]-3-yl)methoxy)-4-ethylphenyl)acetic acid]
6 nM | CCNc1cc(COc2ccccc2CC(=O)O)cc(-c2cccc([C@@H](C)N)c2F)c1 [Example 151, (R)-2-(2-((3′-(1-aminoethyl)-5-(ethylamino)-2′-fluoro-[1,1′-biphenyl]-3-yl)methoxy)phenyl)acetic acid]
7 nM | N[C@H](CO)c1cccc(-c2cc(Cl)cc(COc3ccccc3CC(=O)O)c2)c1 [Example 108-B, (S)-2-(2-((3′-(1-Amino-2-hydroxyethyl)-5-chloro-[1,1′-biphenyl]-3-yl)methoxy)phenyl)acetic acid]
5 nM | NCc1cccc(-c2cc(COc3ccccc3CC(=O)O)cc(OCC3CC3)c2)c1 [Example 136, 2-(2-((3′-(Aminomethyl)-5-(cyclopropylmethoxy)-[1,1′-biphenyl]-3-yl)methoxy)phenyl)acetic acid]
4 nM | Cn1cc(-c2cc(COc3ccccc3CC(=O)O)cc(-c3cccc(CN)c3)c2)cn1 [Example 208-H]
3 nM | NCc1cccc(-c2cc(COc3ccccc3CC(=O)O)cc(NC[C@@H]3CCCO3)c2)c1 [Example 140, (S)-2-(2-((3′-(Aminomethyl)-5-(((tetrahydrofuran-2-yl)methyl)amino)-[1,1′-biphenyl]-3-yl)methoxy)phenyl)acetic acid]
2 nM | Cc1ccc(S(=O)(=O)n2ncc3c(COc4ccccc4CC(=O)O)cc(-c4cccc(CN)c4)cc32)cc1 [Example 178, 2-(2-((6-(3-(Aminomethyl)phenyl)-1-tosyl-1H-indazol-4-yl)methoxy)phenyl)acetic acid]
5 nM | CC(O)c1cc(COc2ccccc2CC(=O)O)cc(-c2cccc(CN)c2)c1 (racemic) [Example 106, (±)-2-(2-((3′-(Aminomethyl)-5-(1-hydroxyethyl)-[1,1′-biphenyl]-3-yl)methoxy)phenyl)acetic acid]
5 nM | N[C@H](CO)c1cccc(-c2cc(COc3ccccc3CC(=O)O)cc(NCC3CCCO3)c2F)c1 (mixture of isomers) [Example 157, 2-(2-((3′-((S)-1-Amino-2-hydroxyethyl)-6-fluoro-5-(((tetrahydrofuran-2-yl)methyl)amino)-[1,1′-biphenyl]-3-yl)methoxy)phenyl)acetic acid]
1 nM | C[C@@H](N)c1cccc(-c2cc(COc3ccccc3CC(=O)O)cc(C(O)C(F)(F)F)c2)c1 (mixture of isomers) [116-H a), 2-(2-((3′-((R)-1-aminoethyl)-5-(2,2,2-trifluoro-1-hydroxyethyl)-[1,1′-biphenyl]-3-yl)methoxy)phenyl)acetic acid]
